Assay results published in patent publication US10793575B2, “Oxoisoquinoline derivatives” (CARNA BIOSCIENCES, INC., priority 2016, dated 2020).

Key:
dephosphorylated BTK = dephosphorylated BTK (Homo sapiens (Human), UniProt Q06187); assay: BTK Activity Inhibition Test (mobility shift assay); assay type: biochemical; details: 200 μM ATP, read-out: Inhibitory Activity on BTK
Method in brief: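 Biotinylated human BTK was dephosphorylated with λ phosphatase and assayed by mobility shift, with FITC-SRCtide as substrate in 20 mM HEPES pH 7.5, 0.01% Triton X-100 and 2 mM DTT. The substrate mix held 4 μM substrate, 20 mM MgCl2 and 200 μM ATP, and the enzyme solution held 0.46 nM BTK (stock levels, not final). After 2 h at room temperature, % inhibition was derived from P/(P+S) and IC50 by log-concentration regression.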

BTK = BTK (Homo sapiens (Human), UniProt Q06187); assay: Intracellular BTK Auto-Phosphorylation Activity Inhibition Test in Ramos cells; assay type: cell-based; details: test compound 0.03 μM, anti-IgM stimulation, pY223, read-out: Inhibitory Activity on BTK-phosphorization
Experimental: Ramos cells (2G6.4C10, ATCC No. CRL-1923) were cultured in a T75 flask containing RPMI-1640 medium (GIBCO, # A10491-01) supplemented with 10% FBS (AusGene) and 1% penicillin-streptomycin (Nacalai Tesque, Inc.) (hereinafter referred to as growth medium) in a 5% CO2 incubator.
The cultured Ramos cells were diluted to a cell density of 7.5×10^6 cells/mL with a serum-free RPMI-1640 (hereinafter referred to as medium) and kept at 37° C. for 45 minutes. The cell suspension was dispensed in 1 mL aliquots into 2.0 mL tubes. A 0.03 mM solution of the test substance in DMSO was diluted with the medium to make a 0.09 μM test compound solution, 500 μL of which was then added to the tubes and the incubation was conducted at 37° C. for 1 hour in the presence of the test compound at a final concentration of 0.03 μM. Thereafter, the anti-IgM antibody (Invitrogen, H15100) which had been diluted with the medium was added at a final concentration of 10 μg/mL, and the incubation was conducted at 37° C. for 10 minutes.
To the pellets obtained by recovering the cells via centrifugation, 100 μL of a lysis buffer [RIPA Buffer(×1)(Cell Signaling Technology, Inc.) supplemented with 1% Phosphatase inhibitor Cacktail 3 (Sigma Corporation, No. P0044), 1% Phosphatase inhibitor Cacktail (Nacalai Tesque, Inc., No. 07575) and 1 mM phenylmethylsulfonyl fluoride (PMSF)] was added and stirred gently and then allowed to stand for 10 minutes. The supernatant was recovered by centrifugation (15,000 rpm, 15 minutes) and the protein level was quantified. The portion was mixed with the SDS-sample buffer, allowed to react for 5 minutes at 95° C. to denature the protein, thereby obtaining a sample solution. Each 5 μL of the sample solutions was applied to each well containing a 5 to 20% gradient acrylamide gel (Nacalai Tesque, Inc., No. 13064-04) and electrophoresis was conducted. Thereafter, iBlot gel transfer system (Life Technologies Corporation) was used to transfer the proteins in the gel onto a PVDF membrane.
The PVDF membrane after transfer was blocked with 2% ECL prime blocking Reagent (GE Healthcare) and thereafter the reaction was conducted overnight at 4° C. using anti-BTK mouse antibody (BD transduction laboratory, No. 611116) or anti-phosphorylated BTK rabbit antibody (pY223, EPITOMICS, No. 2207-1) as a primary antibody. The unreacted primary antibody was washed with a TBST buffer (10 mM Tris-HCl (pH 7.5), 150 mM NaCl, 0.1% Tween 20) and then the reaction was conducted for 1 hour at room temperature in a TBST buffer supplemented with 2% ECL prime blocking Reagent using HRP-labeled anti-mouse IgG horse antibody (Cell Signaling Technology, No. 7076) or anti-rabbit IgG goat antibody (Cell Signaling Technology, No. 7074) as a secondary antibody. After washing the unreacted secondary antibody with the TBST buffer, Chemi-Lumi One Super (Nacalai Tesque, Inc.) was used to conduct a reaction in accordance with the attached protocol, and then the respective bands as chemiluminescences were detected with a CCD camera (GE Healthcare ImageQuant LAS 500). […] Each phosphorylated BTK band was corrected based on the total BTK.
The intracellular BTK autophosphorylation inhibiting activity was indicated with the mark “***” when 90% or more, with the mark “**” when 70% or more and less than 90%, and with the mark “*” when 50% or more and less than 70%.

wild type BTK [BTK(WT)] = wild type BTK [BTK(WT)] (Homo sapiens (Human), UniProt Q06187); assay: C481S Mutant BTK Inhibitory Activity Test, wild type BTK (mobility shift assay); assay type: biochemical; details: 120 μM ATP
[1] = molecular target: C481S mutant BTK [BTK(C481S)] (Homo sapiens (Human), UniProt Q06187, C481S); assay: C481S Mutant BTK Inhibitory Activity Test (mobility shift assay); assay type: biochemical; details: for IC50: C481S mutant BTK, 100 μM ATP; for C481S mutation-resistance: IC50[BTK(C481S)]/IC50[BTK(WT)]
OCI-Ly10 cells = assay: Proliferation-Inhibitory Test Against Diffuse Large-Cell B-Cell Lymphoma OCI-Ly10 Strain; assay type: cell-based; details: Homo sapiens, 96 hours, alamarBlue
Method in brief: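 Proliferation was read by alamarBlue after a 96-hour incubation. Final compound concentrations spanned 0.9 nM to 30000 nM with 0.3% DMSO. Cells were seeded at 20000 per well in IMDM containing 20% fetal bovine serum under 5% CO2.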

C481S mutant BTK [BTK(C481S)], sequence (Q06187 whole entry C481S): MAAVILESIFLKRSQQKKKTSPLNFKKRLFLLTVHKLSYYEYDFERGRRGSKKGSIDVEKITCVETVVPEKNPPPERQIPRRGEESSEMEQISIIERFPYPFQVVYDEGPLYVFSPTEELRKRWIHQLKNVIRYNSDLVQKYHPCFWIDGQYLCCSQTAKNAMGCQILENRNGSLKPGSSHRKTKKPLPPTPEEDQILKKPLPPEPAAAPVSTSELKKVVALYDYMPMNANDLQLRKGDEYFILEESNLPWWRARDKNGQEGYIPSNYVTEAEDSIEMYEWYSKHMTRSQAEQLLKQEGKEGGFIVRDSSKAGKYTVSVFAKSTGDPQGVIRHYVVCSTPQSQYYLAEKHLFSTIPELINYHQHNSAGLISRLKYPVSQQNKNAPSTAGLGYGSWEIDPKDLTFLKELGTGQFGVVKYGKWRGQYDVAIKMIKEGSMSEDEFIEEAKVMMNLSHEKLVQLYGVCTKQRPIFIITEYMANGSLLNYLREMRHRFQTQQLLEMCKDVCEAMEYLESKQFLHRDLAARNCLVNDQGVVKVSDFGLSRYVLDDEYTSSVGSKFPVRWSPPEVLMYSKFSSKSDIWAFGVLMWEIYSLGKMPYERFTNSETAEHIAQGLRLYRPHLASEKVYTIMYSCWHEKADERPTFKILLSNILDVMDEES
dephosphorylated BTK, sequence (Q06187 whole entry): as the sequence (Q06187 whole entry C481S) above, with S481C counted along it
BTK, sequence (Q06187 whole entry): as the sequence (Q06187 whole entry C481S) above, with S481C counted along it
wild type BTK [BTK(WT)], sequence (Q06187 whole entry): as the sequence (Q06187 whole entry C481S) above, with S481C counted along it

Row | IC50 (dephosphorylated BTK) | inhibition at 0.03 µM (BTK) | IC50 (wild type BTK [BTK(WT)]) | IC50 [1] | C481S mutation-resistance [1] | IC50 (OCI-Ly10 cells) | Compound
1 | < 10 nM | ≥ 90% | 0.49 nM | 0.6 nM | 1.2 | 27 nM | Cn1cc(-c2cc3c(-c4cccc(-n5ccc6cc(C7CC7)cc(F)c6c5=O)c4CO)nc(N)nc3[nH]2)cn1 [Example 13, 2-{3-[2-amino-6-(1-methyl-1H-pyrazol-4-yl)-7H-pyrrolo[2,3-d]pyrimidin-4-yl]-2-(hydroxymethyl)phenyl}-6-cyclopropyl-8-fluoroisoquinolin-1(2H)-one]
2 | < 10 nM | ≥ 90% | 0.46 nM | 0.99 nM | 2.2 | 20 nM | Nc1nc(-c2cccc(-n3ccc4cc(C5CC5)cc(F)c4c3=O)c2CO)c2cc(C3=CCN(C4COC4)CC3)[nH]c2n1 [Example 23, 2-(3-{2-amino-6-[1-(oxetan-3-yl)-1,2,3,6-tetrahydropyridin-4-yl]-7H-pyrrolo[2,3-d]pyrimidin-4-yl}-2-(hydroxymethyl)phenyl)-6-cyclopropyl-8-fluoroisoquinolin-1(2H)-one]
